Measured values published in paper PMC7316778 (Nature Communications, 2020).
Values joined by “and” are separate entries in the source; they are usually repeats but may differ in a detail not shown here. Identical values can stand only once. Like-named read-outs stand apart in the source and are kept apart here.

Assays:
[1] = tested on: WT HL-60 cells; assay: CD11b surface expression, PMA-induced macrophage differentiation; format: cell-based, human; details: Figure 6d
[2] = tested on: FES^S700C HL-60 cells; assay: Proliferation ratio during macrophage differentiation; format: cell-based, human; details: for Proliferation ratio: Figure 6e, S700C
Description: (§1) Cells were pretreated with vehicle or WEL028 (100 or 1000 nM, 1 h) prior to induction of differentiation towards monocytes/macrophages with PMA (16 nM, 48 h). Medium was refreshed with growth medium containing WEL028 and PMA after 24 h to maintain full FES inhibition. […] Threshold for CD11b-positive cells was determined using isotype control antibody. […] Kinases with native cysteine at DFG-1 position are shown in bold. All data represent means ± SEM.
(§2) Cell lines were purchased at ATCC (HEK293T: ATCC® CRL-11268™, U2OS: ATCC® HTB-96™, HL-60: ATCC® CCL-240™) and were tested on regular basis for mycoplasma contamination. Cultures were discarded after 2–3 months of use. HEK293T (human embryonic kidney) and U2OS (human osteosarcoma) cells were cultured at 37 °C under 7% CO2 in DMEM containing phenol red, stable glutamine, 10% (v/v) high iron newborn calf serum (Seradigm), penicillin and streptomycin (200 μg/mL each; Duchefa). Medium was refreshed every 2–3 days and cells were passaged two times a week at 80–90% confluence. HL-60 (human promyeloblast) cells were cultured at 37 °C under 5% CO2 in HEPES-supplemented RPMI containing phenol red, stable glutamine, 10% (v/v) fetal calf serum (Biowest), penicillin and streptomycin (200 μg/mL each), unless stated otherwise. Cell density was maintained between 0.2 × 10^6 and 2.0 × 10^6 cells/mL. Cell viability was assessed by Trypan Blue exclusion and quantification using a TC20™ Automated Cell Counter (Bio-Rad).

[3] = tested on: WT HL-60 cells; assay: as above; format: cell-based, human; details: Figure 6e
Description: as §1, §2

[4] = biological target: AURKB (Aurora B) (Homo sapiens, UniProt Q96GD4); assay: SelectScreen kinase assay
AURKB (Aurora B), sequence (Q96GD4 whole entry): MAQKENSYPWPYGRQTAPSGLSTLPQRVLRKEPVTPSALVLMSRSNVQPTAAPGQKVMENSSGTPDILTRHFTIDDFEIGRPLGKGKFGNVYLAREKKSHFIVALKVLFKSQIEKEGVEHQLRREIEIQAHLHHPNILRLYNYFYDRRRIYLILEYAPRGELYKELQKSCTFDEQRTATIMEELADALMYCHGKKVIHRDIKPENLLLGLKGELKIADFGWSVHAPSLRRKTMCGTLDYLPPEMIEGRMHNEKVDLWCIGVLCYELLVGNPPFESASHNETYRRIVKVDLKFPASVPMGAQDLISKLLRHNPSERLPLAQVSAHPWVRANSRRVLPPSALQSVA
Description: (§3) Selectivity profiling assays were performed by the Invitrogen SelectScreen™ Services. […] The concentration of ATP was selected to be equal to the KM, unless indicated otherwise.

[5] = biological target: AXL (Homo sapiens, UniProt P30530); assay: SelectScreen kinase assay; details: for Inhibition at 1 µM (%): AXL, ZLYTE, ATP Km app
Description: as §3

[6] = biological target: BMPR1A (ALK3) (Homo sapiens, UniProt P36894); assay: SelectScreen kinase assay; details: for Inhibition at 1 µM (%): BMPR1A (ALK3), LanthaScreen Binding
BMPR1A (ALK3), sequence (P36894 24-532): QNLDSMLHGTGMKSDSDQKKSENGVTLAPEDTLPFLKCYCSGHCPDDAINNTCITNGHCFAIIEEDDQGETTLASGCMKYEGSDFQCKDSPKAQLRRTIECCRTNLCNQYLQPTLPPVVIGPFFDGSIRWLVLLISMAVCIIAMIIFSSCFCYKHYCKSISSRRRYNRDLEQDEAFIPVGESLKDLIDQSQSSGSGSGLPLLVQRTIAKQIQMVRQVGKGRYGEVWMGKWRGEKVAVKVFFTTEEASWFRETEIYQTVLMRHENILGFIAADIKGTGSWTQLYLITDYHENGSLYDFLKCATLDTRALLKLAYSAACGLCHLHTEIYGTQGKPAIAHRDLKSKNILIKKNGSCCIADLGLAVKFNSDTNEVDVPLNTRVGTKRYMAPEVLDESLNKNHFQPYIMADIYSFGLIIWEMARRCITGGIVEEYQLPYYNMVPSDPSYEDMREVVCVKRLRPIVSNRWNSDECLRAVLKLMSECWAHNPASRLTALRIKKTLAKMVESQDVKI
Description: as §3

[7] = biological target: CAMK1D (CaMKI delta) (Homo sapiens, UniProt Q8IU85); assay: SelectScreen kinase assay
CAMK1D (CaMKI delta), sequence (Q8IU85 whole entry): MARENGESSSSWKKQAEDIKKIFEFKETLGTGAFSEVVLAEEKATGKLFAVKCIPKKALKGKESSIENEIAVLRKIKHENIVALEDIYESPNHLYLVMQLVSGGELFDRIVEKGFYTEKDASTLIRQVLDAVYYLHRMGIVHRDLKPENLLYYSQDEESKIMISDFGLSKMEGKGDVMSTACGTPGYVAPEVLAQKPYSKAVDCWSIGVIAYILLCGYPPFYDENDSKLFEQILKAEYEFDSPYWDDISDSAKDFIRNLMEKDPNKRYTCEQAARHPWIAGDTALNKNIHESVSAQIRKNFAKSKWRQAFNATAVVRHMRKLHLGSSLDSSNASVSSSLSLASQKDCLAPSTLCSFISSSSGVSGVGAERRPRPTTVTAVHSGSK
Description: as §3

[8] = biological target: CAMK2A (CaMKII alpha) (Homo sapiens, UniProt Q9UQM7); assay: SelectScreen kinase assay
CAMK2A (CaMKII alpha), sequence (Q9UQM7 whole entry): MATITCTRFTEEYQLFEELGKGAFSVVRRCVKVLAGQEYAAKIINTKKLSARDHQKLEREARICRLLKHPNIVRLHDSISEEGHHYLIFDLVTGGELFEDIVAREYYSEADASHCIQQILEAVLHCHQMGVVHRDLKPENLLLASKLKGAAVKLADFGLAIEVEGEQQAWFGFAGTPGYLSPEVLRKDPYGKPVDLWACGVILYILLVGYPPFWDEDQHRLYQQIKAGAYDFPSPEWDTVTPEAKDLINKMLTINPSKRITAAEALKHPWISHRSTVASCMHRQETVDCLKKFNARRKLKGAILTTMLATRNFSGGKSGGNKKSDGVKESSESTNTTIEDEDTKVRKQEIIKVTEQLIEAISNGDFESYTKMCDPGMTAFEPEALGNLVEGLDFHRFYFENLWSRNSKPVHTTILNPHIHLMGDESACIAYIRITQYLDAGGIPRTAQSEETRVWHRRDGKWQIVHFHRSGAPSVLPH
Description: as §3

[9] = biological target: CDK14 (PFTK1)/cyclin Y (Homo sapiens, UniProt O94921); assay: SelectScreen kinase assay
Description: as §3

[10] = biological target: FGFR3 (Homo sapiens, UniProt P22607); assay: SelectScreen kinase assay
Description: as §3

[11] = biological target: MKNK1 (MNK1) (Homo sapiens, UniProt Q9BUB5); assay: SelectScreen kinase assay
Description: as §3

[12] = biological target: PRKCE (PKC epsilon) (Homo sapiens, UniProt Q02156); assay: SelectScreen kinase assay
PRKCE (PKC epsilon), sequence (Q02156 whole entry): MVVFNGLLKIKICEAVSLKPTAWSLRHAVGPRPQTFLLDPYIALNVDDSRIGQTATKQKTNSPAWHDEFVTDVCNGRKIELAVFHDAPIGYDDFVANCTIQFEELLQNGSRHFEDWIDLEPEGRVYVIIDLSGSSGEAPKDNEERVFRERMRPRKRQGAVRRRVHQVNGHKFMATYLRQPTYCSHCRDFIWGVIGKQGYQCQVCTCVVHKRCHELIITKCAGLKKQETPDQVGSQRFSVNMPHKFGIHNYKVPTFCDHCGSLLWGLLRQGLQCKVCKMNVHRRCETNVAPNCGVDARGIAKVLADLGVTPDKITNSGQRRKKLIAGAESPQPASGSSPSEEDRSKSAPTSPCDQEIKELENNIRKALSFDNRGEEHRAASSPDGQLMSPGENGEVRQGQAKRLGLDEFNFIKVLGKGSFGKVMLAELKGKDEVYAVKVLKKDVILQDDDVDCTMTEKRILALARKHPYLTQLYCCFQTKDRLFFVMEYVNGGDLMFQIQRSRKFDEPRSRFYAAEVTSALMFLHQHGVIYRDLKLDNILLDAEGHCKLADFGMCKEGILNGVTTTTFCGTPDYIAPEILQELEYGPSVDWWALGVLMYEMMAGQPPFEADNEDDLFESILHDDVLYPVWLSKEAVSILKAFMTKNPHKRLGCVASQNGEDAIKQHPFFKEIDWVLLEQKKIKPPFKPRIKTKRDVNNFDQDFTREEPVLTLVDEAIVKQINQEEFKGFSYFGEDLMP
Description: as §3

[13] = biological target: T1, STK17B (DRAK2) (Homo sapiens, UniProt O94768); assay: SelectScreen kinase assay
T1 sequence (O94768 1-372): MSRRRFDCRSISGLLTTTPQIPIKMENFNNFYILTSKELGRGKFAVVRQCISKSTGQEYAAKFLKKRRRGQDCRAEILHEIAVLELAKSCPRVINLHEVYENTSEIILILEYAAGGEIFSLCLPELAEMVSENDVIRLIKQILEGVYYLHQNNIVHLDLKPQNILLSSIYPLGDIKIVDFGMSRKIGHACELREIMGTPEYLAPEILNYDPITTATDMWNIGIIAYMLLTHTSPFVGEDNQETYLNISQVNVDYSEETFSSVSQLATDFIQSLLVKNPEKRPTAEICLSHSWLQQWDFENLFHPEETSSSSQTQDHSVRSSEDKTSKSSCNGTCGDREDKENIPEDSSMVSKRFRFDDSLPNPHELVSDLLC
Description: as §3

[14] = biological target: SYK (Homo sapiens, UniProt P43405); assay: SelectScreen kinase assay
Description: as §3

[15] = biological target: WNK2 (Homo sapiens, UniProt Q9Y3S1); assay: SelectScreen kinase assay
WNK2, sequence (Q9Y3S1 whole entry): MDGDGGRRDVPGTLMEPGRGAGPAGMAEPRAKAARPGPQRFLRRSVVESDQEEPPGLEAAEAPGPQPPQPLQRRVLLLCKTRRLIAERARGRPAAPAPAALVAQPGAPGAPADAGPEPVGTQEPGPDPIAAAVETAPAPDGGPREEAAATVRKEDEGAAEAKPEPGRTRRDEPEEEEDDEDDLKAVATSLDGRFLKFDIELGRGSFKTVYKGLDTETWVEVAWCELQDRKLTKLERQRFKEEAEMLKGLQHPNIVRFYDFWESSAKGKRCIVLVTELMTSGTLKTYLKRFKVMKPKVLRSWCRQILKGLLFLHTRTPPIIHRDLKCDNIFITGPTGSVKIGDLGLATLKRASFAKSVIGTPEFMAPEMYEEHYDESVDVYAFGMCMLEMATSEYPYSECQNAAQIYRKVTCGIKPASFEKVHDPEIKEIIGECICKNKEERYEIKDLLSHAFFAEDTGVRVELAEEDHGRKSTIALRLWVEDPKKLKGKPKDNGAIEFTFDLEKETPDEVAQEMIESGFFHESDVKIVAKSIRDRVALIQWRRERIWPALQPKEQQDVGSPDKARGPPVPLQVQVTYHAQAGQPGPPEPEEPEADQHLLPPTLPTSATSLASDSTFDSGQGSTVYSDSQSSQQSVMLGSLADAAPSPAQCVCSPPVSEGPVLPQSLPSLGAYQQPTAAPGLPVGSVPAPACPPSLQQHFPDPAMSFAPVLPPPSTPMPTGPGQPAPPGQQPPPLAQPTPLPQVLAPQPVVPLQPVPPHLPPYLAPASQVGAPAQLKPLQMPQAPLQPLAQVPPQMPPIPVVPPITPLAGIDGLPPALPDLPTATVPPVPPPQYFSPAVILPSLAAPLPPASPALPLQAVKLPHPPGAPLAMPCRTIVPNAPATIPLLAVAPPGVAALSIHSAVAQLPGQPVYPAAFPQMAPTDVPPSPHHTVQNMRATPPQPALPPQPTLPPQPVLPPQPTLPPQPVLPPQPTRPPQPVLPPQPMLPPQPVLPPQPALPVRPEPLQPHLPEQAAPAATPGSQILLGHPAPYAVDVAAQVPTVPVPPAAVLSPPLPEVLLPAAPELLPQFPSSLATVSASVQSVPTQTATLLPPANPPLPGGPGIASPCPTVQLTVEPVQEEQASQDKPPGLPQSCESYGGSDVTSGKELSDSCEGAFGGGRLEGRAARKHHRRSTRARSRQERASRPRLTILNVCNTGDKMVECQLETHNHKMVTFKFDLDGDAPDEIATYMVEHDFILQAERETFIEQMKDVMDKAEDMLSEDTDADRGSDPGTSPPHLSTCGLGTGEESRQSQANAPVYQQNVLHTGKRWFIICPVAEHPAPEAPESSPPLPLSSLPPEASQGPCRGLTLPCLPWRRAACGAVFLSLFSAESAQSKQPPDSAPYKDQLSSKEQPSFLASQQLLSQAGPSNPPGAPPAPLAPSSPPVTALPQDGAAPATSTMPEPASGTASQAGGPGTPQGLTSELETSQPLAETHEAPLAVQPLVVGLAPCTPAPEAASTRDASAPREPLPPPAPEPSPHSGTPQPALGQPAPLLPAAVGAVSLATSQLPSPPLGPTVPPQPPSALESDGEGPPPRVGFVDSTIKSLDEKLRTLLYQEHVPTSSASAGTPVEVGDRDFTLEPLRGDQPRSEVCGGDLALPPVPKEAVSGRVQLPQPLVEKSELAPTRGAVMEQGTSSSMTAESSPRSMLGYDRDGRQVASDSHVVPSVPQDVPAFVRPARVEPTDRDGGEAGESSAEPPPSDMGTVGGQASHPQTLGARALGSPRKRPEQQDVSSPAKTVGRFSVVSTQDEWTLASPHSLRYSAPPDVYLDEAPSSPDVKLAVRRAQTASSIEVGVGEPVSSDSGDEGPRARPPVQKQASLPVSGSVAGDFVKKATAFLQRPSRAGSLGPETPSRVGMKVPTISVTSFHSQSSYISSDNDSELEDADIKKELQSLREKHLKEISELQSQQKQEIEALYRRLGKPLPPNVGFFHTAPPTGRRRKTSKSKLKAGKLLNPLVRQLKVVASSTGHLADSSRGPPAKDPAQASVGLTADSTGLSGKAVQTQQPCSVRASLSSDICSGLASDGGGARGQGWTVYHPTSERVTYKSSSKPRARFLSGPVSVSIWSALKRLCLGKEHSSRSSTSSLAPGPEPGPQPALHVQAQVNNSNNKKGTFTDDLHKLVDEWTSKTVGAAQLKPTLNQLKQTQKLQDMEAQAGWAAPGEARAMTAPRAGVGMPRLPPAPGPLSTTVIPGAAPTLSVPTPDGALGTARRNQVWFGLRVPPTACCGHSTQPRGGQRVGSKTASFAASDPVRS
Description: as §3

[16] = 1 h, 1 μM WEL028, 1 h preincubation
[17] = 1 µM, LanthaScreen Binding, listed as WEL028, 1 µM
[18] = read-out: Inhibition at 1 µM (%), 1 µM, LanthaScreen Binding

Question: Which results are given for C#CCOc1ccc(Nc2ncc(Cl)c(Nc3ccccc3NC(=O)C=C)n2)c(OC)c1 [Compound 6]?
Answer: CD11b-positive cells (%) ([1]; WEL028 100 nM): 79.481% and 79.680% and 76.989%; CD11b-positive cells (%) ([1]; WEL028 1 µM): 1.972% and 1.548% and 2.205%; Cell proliferation ([2]; 100 nM WEL028 vs vehicle): decreased to identical levels; Cell proliferation ([2]; 1 µM WEL028): less pronounced decrease in proliferation; Proliferation ratio ([2]; WEL028 100 nM): 1.219 and 1.226 and 1.503; Proliferation ratio ([2]; WEL028 1 µM): 2.372 and 2.5075 and 3.084; Proliferation ratio ([3]; WEL028 100 nM): 1.995 and 1.877 and 1.706; Proliferation ratio ([3]; WEL028 1 µM): 2.7225 and 2.805 and 3.0525; inhibition at 1 µM [4, 16]: 37%; Inhibition at 1 µM (%) ([4]; AURKB (Aurora B), 1 µM, ZLYTE, ATP Km app, listed as WEL028, 1 µM): 32%; inhibition at 1 µM ([4]; read-out: Inhibition at 1 µM (%), AURKB (Aurora B), 1 µM, ZLYTE, ATP Km app): 41%; inhibition at 1 µM [5, 16]: -2%; Inhibition at 1 µM (%) [5]: 3%; Inhibition at 1 µM (%) ([5]; listed as WEL028, 1 µM): -6%; inhibition at 1 µM [6, 16]: -2%; Inhibition at 1 µM (%) [6]: 2%; Inhibition at 1 µM (%) ([6]; listed as WEL028, 1 µM): -6%; inhibition at 1 µM [7, 16]: 6%; inhibition at 1 µM ([7]; read-out: Inhibition at 1 µM (%), CAMK1D (CaMKI delta), 1 µM, ZLYTE, ATP Km app): 5%; inhibition at 1 µM [8, 16]: -6%; Inhibition at 1 µM (%) ([8]; CAMK2A (CaMKII alpha), 1 µM, ZLYTE, ATP Km app, listed as WEL028, 1 µM): -7% and -5%; Inhibition (%) ([9]; 1 μM WEL028, 1 h preincubation): -7%; Inhibition at 1 µM (%) ([9]; CDK14 (PFTK1)/cyclin Y, 1 µM, LanthaScreen Binding): -14%; inhibition at 1 µM [10, 16]: 6%; inhibition at 1 µM ([10]; read-out: Inhibition at 1 µM (%), FGFR3, 1 µM, ZLYTE, ATP Km app): 7%; inhibition at 1 µM [11, 16]: 13%; Inhibition at 1 µM (%) ([11]; MKNK1 (MNK1), 1 µM, ZLYTE, ATP Km app): 21%; inhibition at 1 µM [12, 16]: -13%; Inhibition at 1 µM (%) ([12]; PRKCE (PKC epsilon), 1 µM, ZLYTE, ATP Km app, listed as WEL028, 1 µM): -15% and -11%; Inhibition at 1 µM (%) [13, 17]: 8%; inhibition at 1 µM [13, 16]: 9%; inhibition at 1 µM [13, 18]: 9%; Inhibition (%) ([14]; 1 μM WEL028, 1 h preincubation): did not inhibit; Inhibition at 1 µM (%) ([14]; 1 µM, ZLYTE, ATP Km app, listed as WEL028, 1 µM): 1% and 5%; Inhibition at 1 µM (%) [15, 17]: 4%; inhibition at 1 µM [15, 16]: 5%; inhibition at 1 µM [15, 18]: 5%
